# Earlier results as cited in patent US9060510B2 (priority 2005, dated 2015).
# Where two headings read alike, the source gives them in different places.
Molecule,"water-solubility (at pH 4.0, 20° C.) [mg/mL]","water-solubility (at pH 7.0, 20° C.) [mg/mL]"
"(E)-1-(2-chloro-1,3-thiazol-5-yl)-3-methyl-2-nitroguanidine [Clothianidin]",0.304,
"CCN(Cc1ccc(Cl)nc1)/C(=C/[N+](=O)[O-])NC [Nitempyram, (E)-N-(6-chloro-3-pyridylmethyl)-N-ethyl-N′-methyl-2-nitrovinylidenediamine]",,> 590
